Data published in ChEMBL document CHEMBL5252547, “A review of salvinorin analogs and their kappa-opioid receptor activity” (Bioorg Med Chem Lett, 2018).

Biological target: Kappa-type opioid receptor (Homo sapiens, UniProt P41145)
Assay: Inhibition of human kappa opioid receptor assessed as inhibition constant

Kappa-type opioid receptor, sequence (P41145 whole entry): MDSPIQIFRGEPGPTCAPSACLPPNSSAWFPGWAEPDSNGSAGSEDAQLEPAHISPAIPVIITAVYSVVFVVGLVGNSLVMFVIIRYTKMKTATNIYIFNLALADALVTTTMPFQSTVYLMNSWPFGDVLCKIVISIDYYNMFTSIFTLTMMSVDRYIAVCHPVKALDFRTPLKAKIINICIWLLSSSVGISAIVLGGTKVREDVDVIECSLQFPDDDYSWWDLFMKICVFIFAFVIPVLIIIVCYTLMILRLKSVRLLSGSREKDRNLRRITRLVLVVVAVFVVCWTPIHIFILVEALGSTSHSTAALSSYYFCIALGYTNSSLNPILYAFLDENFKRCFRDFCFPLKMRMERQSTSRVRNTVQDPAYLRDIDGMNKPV

COC(=O)[C@@H]1C[C@H](OC(C)=O)C(=O)[C@H]2[C@@]1(C)CC[C@H]1C(=O)O[C@H](C(=O)Nc3ccccc3)C[C@]21C
Ki: 1000 nM
